From the NIST ThermoML archive (doi:10.1021/acs.jced.6b00354)
Numbers after ± are expanded uncertainties.

Experiment: mn = molality of the nth substance listed, in mol/kg
Details: 100 kPa, Liquid, Alternating current cell with electrodes

CCn1cc[n+](C)c1.F[B-](F)(F)F [1-ethyl-3-methylimidazolium tetrafluoroborate] + CC(=O)N(C)C
electrical conductivity [S/m]
Details	283.15 K	288.15 K	293.15 K	298.15 K	303.15 K	308.15 K	313.15 K	318.15 K
m1 = 0.0005629	0.0031908 ± 1.6e-06	0.0034405 ± 1.7e-06	0.0036939 ± 1.8e-06	0.0039526 ± 1.9e-06	0.0042191 ± 2e-06	0.004484 ± 2.1e-06	0.0047434 ± 2.2e-06	0.0050185 ± 2.3e-06
m1 = 0.0006895	0.0038906 ± 2e-06	0.004193 ± 2.1e-06	0.0045017 ± 2.2e-06	0.0048205 ± 2.3e-06	0.0051443 ± 2.4e-06	0.0054656 ± 2.5e-06	0.0057804 ± 2.7e-06	0.0061132 ± 2.8e-06
m1 = 0.000982	0.0054941 ± 2.8e-06	0.0059172 ± 2.9e-06	0.0063518 ± 3.1e-06	0.0067988 ± 3.3e-06	0.0072509 ± 3.4e-06	0.0077078 ± 3.6e-06	0.0081485 ± 3.7e-06	0.0086157 ± 3.8e-06
m1 = 0.001939	0.010589 ± 6e-06	0.011412 ± 6e-06	0.012243 ± 6e-06	0.013099 ± 6e-06	0.013967 ± 7e-06	0.014834 ± 7e-06	0.015676 ± 7e-06	0.016565 ± 7e-06
m1 = 0.002956	0.015824 ± 8e-06	0.017057 ± 8e-06	0.018294 ± 9e-06	0.019571 ± 9e-06	0.020868 ± 1e-05	0.022135 ± 1e-05	0.023398 ± 1.1e-05	0.024707 ± 1.1e-05
m1 = 0.004046	0.021327 ± 1.1e-05	0.022927 ± 1.1e-05	0.024608 ± 1.2e-05	0.026319 ± 1.3e-05	0.028044 ± 1.3e-05	0.029762 ± 1.4e-05	0.031425 ± 1.4e-05	0.033169 ± 1.5e-05
m1 = 0.005688	0.029289 ± 1.5e-05	0.031559 ± 1.5e-05	0.033817 ± 1.6e-05	0.036147 ± 1.7e-05	0.038528 ± 1.8e-05	0.040878 ± 1.9e-05	0.043126 ± 1.9e-05	0.045508 ± 2e-05
m1 = 0.007809	0.039246 ± 2e-05	0.042233 ± 2.1e-05	0.045277 ± 2.2e-05	0.048414 ± 2.3e-05	0.051576 ± 2.4e-05	0.054665 ± 2.5e-05	0.057654 ± 2.6e-05	0.060821 ± 2.7e-05
m1 = 0.009857	0.048544 ± 2.4e-05	0.052266 ± 2.6e-05	0.056056 ± 2.7e-05	0.059913 ± 2.8e-05	0.063775 ± 2.9e-05	0.067588 ± 3.1e-05	0.071261 ± 3.2e-05	0.075126 ± 3.3e-05
m1 = 0.01192	0.057623 ± 2.9e-05	0.062014 ± 3e-05	0.06648 ± 3.2e-05	0.071 ± 3.3e-05	0.075636 ± 3.5e-05	0.08016 ± 3.6e-05	0.08449 ± 3.8e-05	0.089017 ± 3.9e-05
m1 = 0.01392	0.066221 ± 3.3e-05	0.071259 ± 3.5e-05	0.076376 ± 3.6e-05	0.081634 ± 3.8e-05	0.08688 ± 4e-05	0.09207 ± 4.1e-05	0.097012 ± 4.3e-05	0.10224 ± 5e-05
m1 = 0.01584	0.074143 ± 3.7e-05	0.079848 ± 3.9e-05	0.085601 ± 4.1e-05	0.091493 ± 4.3e-05	0.097323 ± 4.5e-05	0.10312 ± 5e-05	0.10873 ± 5e-05	0.11459 ± 5e-05

CC(=O)N(C)C [N,N-dimethylethanamide] + CCCCn1cc[n+](C)c1.F[B-](F)(F)F
electrical conductivity [S/m]
Details	283.15 K	288.15 K	293.15 K	298.15 K	303.15 K	308.15 K	313.15 K	318.15 K
m2 = 0.0003956	0.0021612 ± 1.1e-06	0.0023283 ± 1.2e-06	0.0025019 ± 1.2e-06	0.0026803 ± 1.3e-06	0.0028647 ± 1.4e-06	0.0030385 ± 1.4e-06	0.00322 ± 1.5e-06	0.0034051 ± 1.6e-06
m2 = 0.000671	0.0036275 ± 1.9e-06	0.0039047 ± 1.9e-06	0.004196 ± 2.1e-06	0.0044945 ± 2.2e-06	0.0047984 ± 2.3e-06	0.0050953 ± 2.4e-06	0.0053975 ± 2.5e-06	0.0057039 ± 2.6e-06
m2 = 0.0009718	0.0051999 ± 2.7e-06	0.0056027 ± 2.8e-06	0.0060224 ± 2.9e-06	0.0064451 ± 3.1e-06	0.0068768 ± 3.2e-06	0.0073024 ± 3.4e-06	0.0077338 ± 3.5e-06	0.0081707 ± 3.6e-06
m2 = 0.001959	0.010227 ± 5e-06	0.011022 ± 5e-06	0.011831 ± 6e-06	0.012666 ± 6e-06	0.013508 ± 6e-06	0.014339 ± 7e-06	0.015175 ± 7e-06	0.01603 ± 7e-06
m2 = 0.002976	0.01525 ± 8e-06	0.016416 ± 8e-06	0.017623 ± 9e-06	0.018852 ± 9e-06	0.020112 ± 9e-06	0.021302 ± 1e-05	0.022571 ± 1e-05	0.023828 ± 1.1e-05
m2 = 0.003778	0.019105 ± 1e-05	0.020563 ± 1e-05	0.022088 ± 1.1e-05	0.023628 ± 1.1e-05	0.025189 ± 1.2e-05	0.026664 ± 1.2e-05	0.028258 ± 1.3e-05	0.029817 ± 1.3e-05
m2 = 0.005993	0.02947 ± 1.5e-05	0.03171 ± 1.6e-05	0.034016 ± 1.6e-05	0.036401 ± 1.7e-05	0.038756 ± 1.8e-05	0.041015 ± 1.9e-05	0.043439 ± 2e-05	0.045784 ± 2e-05
m2 = 0.007976	0.03841 ± 1.9e-05	0.041353 ± 2e-05	0.044368 ± 2.1e-05	0.047396 ± 2.2e-05	0.050472 ± 2.3e-05	0.053564 ± 2.4e-05	0.056503 ± 2.5e-05	0.059519 ± 2.6e-05
m2 = 0.009999	0.047279 ± 2.4e-05	0.050928 ± 2.5e-05	0.054557 ± 2.6e-05	0.058325 ± 2.7e-05	0.062033 ± 2.9e-05	0.065747 ± 3e-05	0.069408 ± 3.1e-05	0.073087 ± 3.2e-05
m2 = 0.01203	0.055972 ± 2.8e-05	0.060177 ± 2.9e-05	0.064588 ± 3.1e-05	0.069017 ± 3.2e-05	0.073419 ± 3.4e-05	0.077654 ± 3.5e-05	0.082086 ± 3.7e-05	0.086346 ± 3.8e-05
m2 = 0.01408	0.064541 ± 3.2e-05	0.069536 ± 3.4e-05	0.074489 ± 3.6e-05	0.079576 ± 3.7e-05	0.084557 ± 3.9e-05	0.089517 ± 4e-05	0.094529 ± 4.2e-05	0.099432 ± 4.4e-05
m2 = 0.01598	0.072339 ± 3.6e-05	0.07784 ± 3.8e-05	0.083519 ± 4e-05	0.089184 ± 4.2e-05	0.094781 ± 4.3e-05	0.10031 ± 5e-05	0.10588 ± 5e-05	0.1113 ± 5e-05
